Assay results reported in US5276139A, “Haptens useful in evaluating inhibition of PNN elastase by N-substituted azetidinones” (Merck & Co., Inc., priority 1991, dated 1994).

Test system: antibody R674
Experiment: Radioimmune assay: displacement of 3H-Compound A' or 3H-Compound B' from antibody R674
Format: binding, rabbit
Conditions: up to 10 μM (the highest concentration tested)
Method: Non-antibody-bound radioactive isotope was removed from the reaction mixture by its absorption onto dextran-coated activated charcoal. […] The activated charcoal was then suspended to 3% (w/v) in PBS dextran and allowed to stand overnight, washed once again in PBS dextran and resuspended to 3% (w/v) in PBS dextran and stored at 4° C. Immediately before use in the assay, the dextran-coated activated charcoal was diluted 10-fold in DULBECCO's PBS and 1 ml was added to each assay tube. […] The supernatant fluid was decanted into 9 ml of AQUASOL-2 scintillation fluid and radioactivity counted in a beta-counter. Each assay contains charcoal free controls, to which 1 ml PBS was added, for determination of total counts (BO), and antibody free controls for determination of non-specific binding. Percent specific binding was determined by subtracting the value for non-specific binding from the value of total antiserum binding and then dividing by the total radioactivity added.
The antiserum was diluted in PET/GEL buffer (1:12,000 final dilution in the 200 μl assay volume) as described above so that it binds 20-30% of the total radioactivity added. The same diluted stock was then used for all assay tubes with-in the same assay. […] The assay was set up on a competition basis. The unlabeled reactivation product competed with the tritiated reactivation product for binding to the antibody R674. […]

Structure (SMILES)	effect on binding to antibody R674
NC(N)=O [Urea]	without effect
N=C(N)NCCC[C@H](N)C(=O)O [arginine]	without effect
